According to patent US10800792B2, “Inhibitors of Bruton's tyrosine kinase and method of their use” (JANSSEN PHARMACEUTICA NV, priority 2015, dated 2020):

Biological target: unphosphorylated-BTK kinase domain (UP-BTK), GST-tagged human BTK (389-659aa) (Homo sapiens (Human), UniProt Q06187)
Assay: BTK kinase Lanthascreen binding assay
Conditions: pIC50 = negative log of the IC50 in molar; 60 minutes incubation, 50 nM Tracer 236
How it was run: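 Lanthascreen competition binding; test compound vs fluorescent tracer on unphosphorylated BTK. Output: pIC50 (−log IC50, M).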

Chain of unphosphorylated-BTK kinase domain (UP-BTK), GST-tagged human BTK (389-659aa) (Q06187 389-659): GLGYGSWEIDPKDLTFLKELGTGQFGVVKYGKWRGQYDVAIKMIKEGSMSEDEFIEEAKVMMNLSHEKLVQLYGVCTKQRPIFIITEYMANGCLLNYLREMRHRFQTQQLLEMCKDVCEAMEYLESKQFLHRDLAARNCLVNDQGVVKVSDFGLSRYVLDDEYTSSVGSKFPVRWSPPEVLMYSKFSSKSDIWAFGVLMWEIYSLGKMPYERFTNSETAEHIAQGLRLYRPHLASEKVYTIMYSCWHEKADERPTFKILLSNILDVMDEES

SMILES	BTK_I_binding pIC50
C/C=C\C(=O)N1CCC[C@@H](NC(=O)c2sc3nccc4c3c2NC(=O)N4c2ccc(Oc3ccccc3)cc2C)C1 [Example 116, (R,Z)—N-(1-(But-2-enoyl)piperidin-3-yl)-5-(2-methyl-4-phenoxyphenyl)-4-oxo-4,5-dihydro-3H-1-thia-3,5,8-triazaacenaphthylene-2-carboxamide]	7.2
Cc1cc(Oc2ccccc2)ccc1N1C(=O)Nc2c(C(=O)N[C@@H]3CCN(C)C3)sc3nccc1c23 [Example 117, (R)-5-(2-Methyl-4-phenoxyphenyl)-N-(1-methylpyrrolidin-3-yl)-4-oxo-4,5-dihydro-3H-1-thia-3,5,8-triazaacenaphthylene-2-carboxamide]	6.9
Cc1cc(Oc2ccccc2)ccc1N1C(=O)Nc2c(C(=O)N[C@@H]3CCN(C(C)C)C3)sc3nccc1c23 [Example 118, (R)—N-(1-Isopropylpyrrolidin-3-yl)-5-(2-methyl-4-phenoxyphenyl)-4-oxo-4,5-dihydro-3H-1-thia-3,5,8-triazaacenaphthylene-2-carboxamide]	6.9
C=CC(=O)N1CC[C@@H](NC(=O)c2sc3nccc4c3c2NC(=O)N4c2ccc(CC)cc2C)C1 [Example 119, (R)—N-(1-Acryloylpyrrolidin-3-yl)-5-(4-ethyl-2-methylphenyl)-4-oxo-4,5-dihydro-3H-1-thia-3,5,8-triazaacenaphthylene-2-carboxamide]	6.6
COC[C@H](N)C(=O)N1CCC[C@@H](NC(=O)c2sc3nccc4c3c2NC(=O)N4c2ccc(Oc3ccccc3)cc2C)C1 [Example 120, N—((R)-1-((S)-2-Amino-3-methoxypropanoyl)piperidin-3-yl)-5-(2-methyl-4-phenoxyphenyl)-4-oxo-4,5-dihydro-3H-1-thia-3,5,8-triazaacenaphthylene-2-carboxamide]	7.1
C=CC(=O)N1CCC[C@@H](NC(=O)c2sc3nccc4c3c2NC(=O)N4c2ccc(Oc3ccccc3)nn2)C1 [Example 121, (R)—N-(1-Acryloylpiperidin-3-yl)-4-oxo-5-(6-phenoxypyridazin-3-yl)-4,5-dihydro-3H-1-thia-3,5,8-triazaacenaphthylene-2-carboxamide]	6.7
COC[C@H](O)C(=O)N1CCC[C@@H](NC(=O)c2sc3nccc4c3c2NC(=O)N4c2ccc(Oc3ccccc3)cc2C)C1 [Example 122, N—((R)-1-((S)-2-Hydroxy-3-methoxypropanoyl)piperidin-3-yl)-5-(2-methyl-4-phenoxyphenyl)-4-oxo-4,5-dihydro-3H-1-thia-3,5,8-triazaacenaphthylene-2-carboxamide]	7.4
Cc1cc(Oc2ccccc2)ccc1N1C(=O)Nc2c(C(=O)NC3CCOCC3)sc3nccc1c23 [Example 123, 5-(2-Methyl-4-phenoxyphenyl)-4-oxo-N-(tetrahydro-2H-pyran-4-yl)-4,5-dihydro-3H-1-thia-3,5,8-triazaacenaphthylene-2-carboxamide]	6.9
Cc1cc(Oc2ccccc2)ccc1N1C(=O)Nc2c(C(=O)N[C@@H]3CCCN(C(=O)CO)C3)sc3nccc1c23 [Example 124, (R)—N-(1-(2-Hydroxyacetyl)piperidin-3-yl)-5-(2-methyl-4-phenoxyphenyl)-4-oxo-4,5-dihydro-3H-1-thia-3,5,8-triazaacenaphthylene-2-carboxamide]	7.4
Cc1cc(Oc2ccccc2)ccc1N1C(=O)Nc2c(C(=O)N[C@@H]3CCCN(C(=O)[C@H]4CCN(C)C4)C3)sc3nccc1c23 [Example 125, 5-(2-Methyl-4-phenoxyphenyl)-N—((R)-1-((S)-1-methylpyrrolidine-3-carbonyl)piperidin-3-yl)-4-oxo-4,5-dihydro-3H-1-thia-3,5,8-triazaacenaphthylene-2-carboxamide]	7.2
C=CC(=O)N1CC[C@@H](NC(=O)c2sc3nccc4c3c2NC(=O)N4c2ccc(OC(C)C)cc2C)C1 [Example 126, (R)—N-(1-Acryloylpyrrolidin-3-yl)-5-(4-isopropoxy-2-methylphenyl)-4-oxo-4,5-dihydro-3H-1-thia-3,5,8-triazaacenaphthylene-2-carboxamide]	6.7
Cc1c(N2C(=O)Nc3c(C(=O)N[C@@H]4CCCN(C(=O)CCO)C4)sc4nccc2c34)ccc(Oc2ccccc2)c1F [Example 128, (R)-5-(3-Fluoro-2-methyl-4-phenoxyphenyl)-N-(1-(3-hydroxypropanoyl)piperidin-3-yl)-4-oxo-4,5-dihydro-3H-1-thia-3,5,8-triazaacenaphthylene-2-carboxamide]	7.2
Cc1cc(Oc2ccccc2)ccc1N1C(=O)Nc2c(C(=O)NC3COCCN(C)C3)sc3nccc1c23 (stereo not shown) [Example 129, N-(4-Methyl-1,4-oxazepan-6-yl)-5-(2-methyl-4-phenoxyphenyl)-4-oxo-4,5-dihydro-3H-1-thia-3,5,8-triazaacenaphthylene-2-carboxamide]	6.9
Cc1cc(Oc2ccccc2)ccc1N1C(=O)Nc2c(C(=O)N[C@@H]3CCCN(C(=O)CCN(C)C)C3)sc3nccc1c23 [Example 130, (R)—N-(1-(3-(Dimethylamino)propanoyl)piperidin-3-yl)-5-(2-methyl-4-phenoxyphenyl)-4-oxo-4,5-dihydro-3H-1-thia-3,5,8-triazaacenaphthylene-2-carboxamide]	7.1
Cc1cc(Oc2ccccc2)ccc1N1C(=O)Nc2c(C(=O)N[C@@H]3CCCN(C(=O)[C@H]4CCNC4)C3)sc3nccc1c23 [Example 131, 5-(2-Methyl-4-phenoxyphenyl)-4-oxo-N—((R)-1-((S)-pyrrolidine-3-carbonyl)piperidin-3-yl)-4,5-dihydro-3H-1-thia-3,5,8-triazaacenaphthylene-2-carboxamide]	7.5
Cc1cc(Oc2ccccc2)ccc1N1C(=O)Nc2c(C(=O)N[C@H]3CN(C)C[C@H]3F)sc3nccc1c23 [Example 132, N-((3S,4R)-4-Fluoro-1-methylpyrrolidin-3-yl)-5-(2-methyl-4-phenoxyphenyl)-4-oxo-4,5-dihydro-3H-1-thia-3,5,8-triazaacenaphthylene-2-carboxamide]	7.2
CN1CCC[C@@H](NC(=O)c2sc3nccc4c3c2NC(=O)N4c2ccc(Oc3ccccc3)cc2Cl)C1 [Example 133, (R)-5-(2-Chloro-4-phenoxyphenyl)-N-(1-methylpiperidin-3-yl)-4-oxo-4,5-dihydro-3H-1-thia-3,5,8-triazaacenaphthylene-2-carboxamide]	7.0
Cc1cc(Oc2ccccc2)ccc1N1C(=O)Nc2c(C(=O)N[C@@H]3CCCN(C(=O)/C(C#N)=C\C(C)(C)N(C)C)C3)sc3nccc1c23 [Example 134, (R,Z)—N-(1-(2-Cyano-4-(dimethylamino)-4-methylpent-2-enoyl)piperidin-3-yl)-5-(2-methyl-4-phenoxyphenyl)-4-oxo-4,5-dihydro-3H-1-thia-3,5,8-triazaacenaphthylene-2-carboxamide]	7.1
CN1CCC[C@@H](NC(=O)c2sc3nccc4c3c2NC(=O)N4c2ccc(Oc3ccccc3)cc2F)C1 [Example 135, (R)-5-(2-Fluoro-4-phenoxyphenyl)-N-(1-methylpiperidin-3-yl)-4-oxo-4,5-dihydro-3H-1-thia-3,5,8-triazaacenaphthylene-2-carboxamide]	7.2
